This passage reports IC50 results from US10208089B2, “Modulation of complement activity” (priority 2014, dated 2019).

Starred links: 1 amine or outer side, 2 acyl side, 3 side chain; linkers in the order of their positions; H or OH if unused. Positions of bridges follow the written chain, without caps; N, C: chain ends. Non-standard residues stand in square brackets, D forms with d. Residues, ends and D or L forms follow the SMILES beside them. Trp(7-aza) = N[C@@H](Cc1c[nH]c2ncccc12)C(=O)O; NMePhe(4-F) = CN[C@@H](Cc1ccc(F)cc1)C(=O)O; mXylylene = c1cc(C[*:1])cc(C[*:2])c1; Phg = N[C@H](C(=O)O)c1ccccc1; Tle = CC(C)(C)[C@H](N)C(=O)O; NMeS = CN[C@@H](CO)C(=O)O; hCys = N[C@@H](CCS)C(=O)O; NMeA = CN[C@@H](C)C(=O)O; Nva = CCC[C@H](N)C(=O)O; Sar = CNCC(=O)O

For the first assay, the target named is C5 (Homo sapiens, UniProt P01031). Description: Human hemolysis assay (RBC lysis assay using complete human sera). Type of assay: cell-based. Further details: with complete human sera (Complement Technology, Tyler Tex.) and polypeptides; tissue Complement Technology, Tyler Tex; host or cells: complete human serum. As to conditions: 7-azatryptophan variant polypeptides of R3002; inhibition of red blood cell lysis.
C5, sequence (P01031 19-1676): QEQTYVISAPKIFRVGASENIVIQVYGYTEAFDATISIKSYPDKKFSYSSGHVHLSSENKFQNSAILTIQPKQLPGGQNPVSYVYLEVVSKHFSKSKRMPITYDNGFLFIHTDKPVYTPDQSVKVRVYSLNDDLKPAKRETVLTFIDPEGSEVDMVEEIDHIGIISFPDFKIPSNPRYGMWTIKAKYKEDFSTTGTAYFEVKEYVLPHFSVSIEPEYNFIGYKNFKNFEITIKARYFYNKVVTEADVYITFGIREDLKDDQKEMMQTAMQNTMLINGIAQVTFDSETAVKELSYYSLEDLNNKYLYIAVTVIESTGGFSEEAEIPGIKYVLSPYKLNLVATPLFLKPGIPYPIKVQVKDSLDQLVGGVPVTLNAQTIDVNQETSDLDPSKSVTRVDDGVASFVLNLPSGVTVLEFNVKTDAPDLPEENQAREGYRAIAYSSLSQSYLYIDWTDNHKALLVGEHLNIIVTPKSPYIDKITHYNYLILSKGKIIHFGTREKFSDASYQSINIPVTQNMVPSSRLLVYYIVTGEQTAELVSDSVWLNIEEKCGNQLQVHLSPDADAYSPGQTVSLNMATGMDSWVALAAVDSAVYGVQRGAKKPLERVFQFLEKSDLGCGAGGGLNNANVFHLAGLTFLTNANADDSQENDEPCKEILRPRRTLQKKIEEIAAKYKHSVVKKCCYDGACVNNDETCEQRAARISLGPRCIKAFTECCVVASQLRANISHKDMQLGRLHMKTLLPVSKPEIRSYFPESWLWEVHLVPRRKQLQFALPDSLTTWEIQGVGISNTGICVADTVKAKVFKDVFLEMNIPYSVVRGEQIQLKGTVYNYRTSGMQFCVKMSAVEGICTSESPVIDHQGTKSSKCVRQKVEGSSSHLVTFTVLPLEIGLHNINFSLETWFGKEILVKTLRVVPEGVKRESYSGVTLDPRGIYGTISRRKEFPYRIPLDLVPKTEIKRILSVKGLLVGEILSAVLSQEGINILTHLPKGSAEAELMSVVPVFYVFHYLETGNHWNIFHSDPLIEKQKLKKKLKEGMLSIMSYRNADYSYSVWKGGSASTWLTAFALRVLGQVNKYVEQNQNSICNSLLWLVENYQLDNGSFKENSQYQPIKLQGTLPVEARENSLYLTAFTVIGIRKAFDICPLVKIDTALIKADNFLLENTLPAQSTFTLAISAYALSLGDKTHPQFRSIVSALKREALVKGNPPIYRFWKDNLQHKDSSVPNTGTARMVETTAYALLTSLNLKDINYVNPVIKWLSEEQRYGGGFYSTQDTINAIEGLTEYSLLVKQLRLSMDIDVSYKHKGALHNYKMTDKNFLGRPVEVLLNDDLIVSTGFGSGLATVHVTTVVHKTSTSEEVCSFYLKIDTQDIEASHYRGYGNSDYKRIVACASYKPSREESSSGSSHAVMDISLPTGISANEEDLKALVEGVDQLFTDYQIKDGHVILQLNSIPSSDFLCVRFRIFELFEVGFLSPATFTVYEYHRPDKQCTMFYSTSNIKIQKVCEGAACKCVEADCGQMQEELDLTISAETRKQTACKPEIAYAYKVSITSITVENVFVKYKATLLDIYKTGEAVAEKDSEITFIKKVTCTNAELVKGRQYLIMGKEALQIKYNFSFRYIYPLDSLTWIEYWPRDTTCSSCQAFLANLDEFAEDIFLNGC
The molecule `CCC[C@H](NC(C)=O)C(=O)N[C@@H](CS)C(=O)N[C@@H](Cc1ccc(O)cc1)C(=O)N[C@@H](CC(N)=O)C(=O)N[C@@H](CC(N)=O)C(=O)N[C@H](C(=O)N[C@@H](CCC(=O)O)C(=O)N[C@@H](CS)C(=O)N[C@@H](CCC(=O)O)C(=O)N[C@@H](Cc1ccc(O)cc1)C(=O)N1CCC[C@H]1C(=O)N[C@H](C(=O)N[C@H](C(N)=O)C(C)(C)C)c1ccccc1)C(C)(C)C` [Compound R3128, Ac-Nvl-C-Y-N-N-Tbg-E-C-E-Y-P-Phg-Tbg-NH2] (Ac-[Nva]CYNN[Tle]ECEYP[Phg][Tle]-NH2) had an IC50 above 100 µM.

The assay is the same for the next values; noted with them: inhibition of lysis of antibody-sensitized sheep erythrocytes, complete human sera.
With `CC(=O)N[C@H]1CSCc2cccc(c2)CSC[C@@H](C(=O)N[C@@H](CC(=O)O)C(=O)N[C@H](C(=O)N[C@@H](Cc2ccc(O)cc2)C(=O)N[C@@H](Cc2c[nH]c3ncccc23)C(=O)N[C@@H](CCC(=O)O)C(=O)N[C@@H](Cc2ccc(O)cc2)C(=O)N2CCC[C@H]2C(=O)N[C@@H](C(=O)N[C@@H](CCCCN)C(N)=O)c2ccccc2)C(C)(C)C)NC(=O)[C@H](Cc2ccccc2)NC(=O)[C@H](CCCNC(=N)N)NC(=O)[C@H](CCC(=O)O)NC(=O)[C@H](C)NC1=O` [Compound R3162, [mXylyl(1,6)]Ac-C-A-E-R-F-C-D-Tbg-Y-azaTrp-E-Y-P-(D-Phg)-K-NH2], the 50% inhibitory concentration (IC50) is 0.0165 µM.

On to `CCC[C@H](NC(=O)[C@@H]1CSCc2cccc(c2)CSCC[C@H](NC(=O)[C@H](CCC)NC(C)=O)C(=O)N[C@@H](c2ccccc2)C(=O)N[C@@H]([C@@H](C)O)C(=O)N[C@@H](Cc2c[nH]c3ncccc23)C(=O)N[C@@H](CCC(=O)O)C(=O)N[C@@H](Cc2ccc(O)cc2)C(=O)N(C)[C@@H](CO)C(=O)N[C@@H](Cc2c[nH]cn2)C(=O)N1)C(N)=O` [Compound R3103, [mXylyl(2,10)]Ac-Nvl-homoC-Phg-T-azaTrp-E-Y-(N-Me)S-H-C-Nvl-NH2] (Ac-[Nva][hCys][Phg]T[Trp(7-aza)]EY[NMeS]HC[Nva]-NH2; linker 2-10 via mXylylene), for which the concentration for half-maximal inhibition (IC50) is above 25 µM. On to `CCC[C@H](NC(=O)[C@@H]1CCCN1C(=O)[C@H](CCC)NC(=O)[C@H](CS)NC(=O)[C@H](Cc1c[nH]cn1)NC(=O)[C@H](CO)N(C)C(=O)[C@H](Cc1ccc(O)cc1)NC(=O)[C@H](CCC(=O)O)NC(=O)[C@H](Cc1c[nH]c2ncccc12)NC(=O)[C@@H](NC(=O)[C@@H](NC(=O)[C@H](CS)NC(=O)[C@H](CCC)NC(C)=O)c1ccccc1)[C@@H](C)O)C(N)=O` [Compound R3022, Ac-Nvl-C-Phg-T-azaTrp-E-Y-(N-Me)S-H-C-Nvl-P-Nvl-NH2] (Ac-[Nva]C[Phg]T[Trp(7-aza)]EY[NMeS]HC[Nva]P[Nva]-NH2), for which the IC50 is above 10.2 µM. Take `CCC[C@H](NC(C)=O)C(=O)N[C@@H](CS)C(=O)N[C@@H](Cc1ccc(O)cc1)C(=O)N[C@@H](CCC(=O)O)C(=O)N[C@@H](CC(N)=O)C(=O)N[C@H](C(=O)N[C@@H](Cc1ccc(O)cc1)C(=O)N[C@@H](Cc1c[nH]c2ncccc12)C(=O)N[C@@H](CCC(=O)O)C(=O)N[C@@H](Cc1ccc(O)cc1)C(=O)N(C)CC(=O)N[C@@H](CCC)C(=O)N(C)[C@@H](CO)C(N)=O)C(C)(C)C` [Compound R3001, Ac-Nvl-C-Y-E-N-Tbg-Y-azaTrp-E-Y-(N-Me)G-Nvl-(N-Me)S-NH2] (Ac-[Nva]CYEN[Tle]Y[Trp(7-aza)]EY[Sar][Nva][NMeS]-NH2): the IC50 stood at 0.0672 µM. For `CCC[C@H](NC(=O)[C@@H]1CSCc2cccc(c2)CSC[C@H](NC(=O)[C@H](CCC)NC(C)=O)C(=O)N[C@@H](c2ccccc2)C(=O)N[C@@H]([C@@H](C)O)C(=O)N[C@@H](Cc2c[nH]c3ncccc23)C(=O)N[C@@H](CCC(=O)O)C(=O)N[C@@H](Cc2ccc(O)cc2)C(=O)N(C)[C@@H](CO)C(=O)N1)C(N)=O` [Compound R3080, [mXylyl(2,9)]Ac-Nvl-C-Pha-T-azaTrp-E-Y-(N-Me)S-C-Nvl-NH2] (Ac-[Nva]C[Phg]T[Trp(7-aza)]EY[NMeS]C[Nva]-NH2; linker 2-9 via mXylylene), the IC50 was above 50 µM. Take `CCC[C@H](N)C(=O)N[C@H]1CSCc2cccc(c2)CSC[C@@H](C(N)=O)NC(=O)CN(C)C(=O)[C@H](Cc2ccc(F)cc2)N(C)C(=O)[C@H](Cc2c[nH]cn2)NC(=O)[C@H](CO)N(C)C(=O)[C@H](Cc2ccc(F)cc2)N(C)C(=O)[C@H](c2ccccc2)NC(=O)[C@H](CO)N(C)C(=O)[C@H](Cc2ccc(O)cc2)NC1=O` [Compound R3051, [mXylyl(2,11)]Nvl-C-Y-(N-Me)S-Phg-(N-Me-4-F)Phe-(N-Me)S-H-(N-Me-4-F)-Phe-(N-Me)G-C-NH2] (H-[Nva]CY[NMeS][Phg][NMePhe(4-F)][NMeS]H[NMePhe(4-F)][Sar]C-NH2; linker 2-11 via mXylylene): the IC50 is above 100 µM. As to `CCC[C@H](NC(=O)[C@@H]1CSCc2cccc(c2)CSC[C@H](NC(=O)[C@H](CCC)NC(C)=O)C(=O)N[C@@H](c2ccccc2)C(=O)N[C@@H]([C@@H](C)O)C(=O)N[C@@H](Cc2c[nH]c3ncccc23)C(=O)N[C@@H](CCC(=O)O)C(=O)N[C@@H](Cc2ccc(OC)cc2)C(=O)N(C)[C@@H](CO)C(=O)N[C@@H](Cc2c[nH]cn2)C(=O)N1)C(N)=O` [Compound R3074, [mXylyl(2,10)]Ac-Nvl-C-Phg-T-azaTrp-E-Tyr(OMe)-(N-Me)S-H-C-Nvl-NH2] (Ac-[Nva]C[Phg]T[Trp(7-aza)]EY(Me)[NMeS]HC[Nva]-NH2; linker 2-10 via mXylylene), the IC50 worked out at 0.308 µM.

`CCC[C@H](NC(=O)[C@@H]1CSCc2cccc(c2)CSC[C@H](NC(=O)[C@H](CCC)NC(C)=O)C(=O)N[C@@H](c2ccccc2)C(=O)N[C@@H]([C@@H](C)O)C(=O)N[C@@H](Cc2c[nH]c3ncccc23)C(=O)N[C@@H](CCC(=O)O)C(=O)N[C@@H](Cc2ccc(O)cc2)C(=O)N(C)[C@@H](C)C(=O)N[C@@H](Cc2c[nH]cn2)C(=O)N1)C(N)=O` [Compound R3037, [mXylyl(2,10)]Ac-Nvl-C-Phg-T-azaTrp-E-Y-(N-Me)A-H-C-Nvl-NH2] (Ac-[Nva]C[Phg]T[Trp(7-aza)]EY[NMeA]HC[Nva]-NH2; linker 2-10 via mXylylene): the IC50 was determined as 0.276 µM.

In the case of `CCC[C@H](NC(C)=O)C(=O)N[C@@H](CS)C(=O)N[C@@H](Cc1ccc(O)cc1)C(=O)N[C@@H](CC(N)=O)C(=O)N[C@@H](CC(N)=O)C(=O)N[C@H](C(=O)N[C@@H](CCC(=O)O)C(=O)N[C@@H](CS)C(=O)N[C@@H](CCC(=O)O)C(=O)N[C@@H](Cc1ccc(O)cc1)C(=O)N1CCC[C@H]1C(=O)N[C@H](C(=O)N[C@H](C(N)=O)C(C)(C)C)c1ccccc1)C(C)(C)C` [Compound R3128, Ac-Nvl-C-Y-N-N-Tbg-E-C-E-Y-P-Phg-Tbg-NH2] (Ac-[Nva]CYNN[Tle]ECEYP[Phg][Tle]-NH2), the IC50 was above 100 µM. As for `CCC[C@H](NC(=O)[C@@H]1CSCc2cccc(c2)CSC[C@H](NC(=O)[C@H](CCC)NC(C)=O)C(=O)N[C@@H](c2ccccc2)C(=O)N[C@@H]([C@@H](C)O)C(=O)N[C@@H](Cc2c[nH]c3ncccc23)C(=O)N[C@@H](CCC(=O)O)C(=O)N[C@@H](C)C(=O)N(C)[C@@H](CO)C(=O)N[C@@H](Cc2c[nH]cn2)C(=O)N1)C(N)=O` [Compound R3036, [mXylyl(2,10)]Ac-Nvl-C-Phg-T-azaTrp-E-A-(N-Me)S-H-C-Nvl-NH2] (Ac-[Nva]C[Phg]T[Trp(7-aza)]EA[NMeS]HC[Nva]-NH2; linker 2-10 via mXylylene), the IC50 is above 50 µM. On the same count and under the same terms, in the case of `CCC[C@H](NC(=O)[C@@H]1CSCc2cccc(c2)CSC[C@H](NC(=O)[C@H](CCC)NC(C)=O)C(=O)N[C@@H](c2ccccc2)C(=O)N[C@@H]([C@@H](C)O)C(=O)N[C@@H](Cc2c[nH]c3ccccc23)C(=O)N[C@@H](CCC(=O)O)C(=O)N[C@@H](Cc2ccc(O)cc2)C(=O)N(C)[C@@H](CO)C(=O)N[C@@H](C)C(=O)N1)C(N)=O` [Compound R3091, [mXylyl(2,10)]Ac-Nvl-C-Phg-T-W-E-Y-(N-Me)S-A-C-Nvl-NH2] (Ac-[Nva]C[Phg]TWEY[NMeS]AC[Nva]-NH2; linker 2-10 via mXylylene) it was 0.483 µM.

For the molecule `CCC[C@H](NC(=O)[C@@H]1CSCc2cccc(c2)CSC[C@H](NC(=O)[C@@H](NC(C)=O)C(C)C)C(=O)N[C@@H](c2ccccc2)C(=O)N[C@@H]([C@@H](C)O)C(=O)N[C@@H](Cc2c[nH]c3ncccc23)C(=O)N[C@@H](CCC(=O)O)C(=O)N[C@@H](Cc2ccc(O)cc2)C(=O)N(C)[C@@H](CO)C(=O)N[C@@H](C)C(=O)N1)C(N)=O` [Compound R3083, [mXylyl(2,10)]Ac-V-C-Phg-T-azaTrp-E-Y-(N-Me)S-A-C-Nvl-NH2] (Ac-VC[Phg]T[Trp(7-aza)]EY[NMeS]AC[Nva]-NH2; linker 2-10 via mXylylene), the half-maximal inhibitory concentration (IC50) is above 25 µM. The same measure, in the same setting: in the case of `CCC[C@H](NC(=O)[C@@H]1CSCc2cccc(c2)CSC[C@H](NC(=O)[C@H](CCC)NC(C)=O)C(=O)N[C@@H](c2ccccc2)C(=O)N[C@@H]([C@@H](C)O)C(=O)N[C@@H](Cc2c[nH]c3ncccc23)C(=O)N[C@@H](CCC(=O)O)C(=O)N[C@@H](Cc2ccccc2)C(=O)N(C)[C@@H](CO)C(=O)N[C@@H](C)C(=O)N1)C(N)=O` [Compound R3100, [mXylyl(2,10)]Ac-Nvl-C-Phg-T-azaTrp-E-F-(N-Me)S-A-C-Nvl-NH2] (Ac-[Nva]C[Phg]T[Trp(7-aza)]EF[NMeS]AC[Nva]-NH2; linker 2-10 via mXylylene) it was 0.626 µM; in that of `CCC[C@H](NC(=O)[C@@H]1CSSC[C@H](NC(=O)[C@H](CCC)NC(C)=O)C(=O)N[C@@H](c2ccccc2)C(=O)N[C@@H]([C@@H](C)O)C(=O)N[C@@H](Cc2c[nH]c3ncccc23)C(=O)N[C@@H](CCC(=O)O)C(=O)N[C@@H](Cc2ccc(O)cc2)C(=O)N(C)[C@@H](CO)C(=O)N[C@@H](Cc2c[nH]cn2)C(=O)N1)C(N)=O` [Compound R3042, [cyclo(2,10)]Ac-Nvl-C-Phg-T-azaTrp-E-Y-(N-Me)S-H-C-Nvl-NH2] (Ac-[Nva]C[Phg]T[Trp(7-aza)]EY[NMeS]HC[Nva]-NH2; disulfide 2-10), above 100 µM. Consider `CCC[C@H](NC(C)=O)C(=O)N[C@@H](CS)C(=O)N[C@@H](Cc1ccc(O)cc1)C(=O)N[C@@H](CCCCN)C(=O)N[C@@H](CC(N)=O)C(=O)N[C@@H](Cc1ccc(O)cc1)C(=O)N[C@@H](Cc1c[nH]cn1)C(=O)N[C@@H](Cc1c[nH]c2ncccc12)C(=O)N[C@@H](CCC(=O)O)C(=O)N[C@@H](Cc1ccc(O)cc1)C(=O)N1CCC[C@H]1C(=O)N[C@H](C(=O)N[C@@H](Cc1ccc(O)cc1)C(N)=O)C(C)(C)C` [Compound R3000, Ac-Nvl-C-Y-K-N-Y-H-azaTrp-E-Y-P-Tbg-Y-NH2] (Ac-[Nva]CYKNYH[Trp(7-aza)]EYP[Tle]Y-NH2), for which the IC50 was above 10 µM.
